Results as given in publication PMC9719519, “Non-classical ferroptosis inhibition by a small molecule targeting PHB2” (Nature Communications, 2022).

Key:
Assay in all cases: biochemical
Parameters in all cases: Eurofins recombinant human kinase profiling, remaining kinase activity as % of control, 10 uM ATP
Conditions in all cases: ATP 10 uM; read-out: %Ctrl@10 μM
MARK3(h) = MARK3(h) (Homo sapiens, UniProt P27448)
Method in brief: (§1)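 Recombinant human kinases, 401 in total, screened using an outsourced kinase profiling assay.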

MSK2(h) = molecular target: T1, MSK2(h) (Homo sapiens, UniProt O75676)
T1 construct: gene RPS6KA4
Method in brief: as §1

FGFR1(h) = FGFR1(h) (Homo sapiens, UniProt P11362)
Sequence of FGFR1(h) (P11362 whole entry): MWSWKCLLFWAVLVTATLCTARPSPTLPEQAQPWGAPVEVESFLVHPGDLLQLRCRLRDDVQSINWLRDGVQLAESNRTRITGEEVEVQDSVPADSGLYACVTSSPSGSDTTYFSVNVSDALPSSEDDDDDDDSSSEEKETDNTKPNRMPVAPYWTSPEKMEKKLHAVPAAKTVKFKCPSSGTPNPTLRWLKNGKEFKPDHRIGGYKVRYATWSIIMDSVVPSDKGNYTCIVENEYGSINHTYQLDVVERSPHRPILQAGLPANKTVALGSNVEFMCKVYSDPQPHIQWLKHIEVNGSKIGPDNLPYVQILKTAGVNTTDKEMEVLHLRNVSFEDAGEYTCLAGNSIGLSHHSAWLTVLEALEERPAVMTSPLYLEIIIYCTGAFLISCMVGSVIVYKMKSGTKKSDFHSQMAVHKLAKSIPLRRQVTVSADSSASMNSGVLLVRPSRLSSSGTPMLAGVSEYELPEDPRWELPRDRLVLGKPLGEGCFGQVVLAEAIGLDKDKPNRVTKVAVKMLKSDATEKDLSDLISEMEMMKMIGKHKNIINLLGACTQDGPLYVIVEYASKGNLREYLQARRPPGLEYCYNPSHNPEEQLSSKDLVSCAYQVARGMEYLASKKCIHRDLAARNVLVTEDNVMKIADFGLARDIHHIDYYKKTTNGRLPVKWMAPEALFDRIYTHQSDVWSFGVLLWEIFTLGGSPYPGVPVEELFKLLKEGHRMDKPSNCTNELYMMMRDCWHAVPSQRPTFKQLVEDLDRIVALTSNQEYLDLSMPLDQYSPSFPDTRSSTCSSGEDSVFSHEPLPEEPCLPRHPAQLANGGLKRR
Method in brief: as §1

MST1(h) = molecular target: T2, MST1(h) (Homo sapiens, UniProt Q13043)
T2 construct: gene STK4
Method in brief: as §1

cKit(V560G)(h) = molecular target: T3, cKit(V560G)(h) (Homo sapiens, UniProt P10721, V560G)
T3 construct: gene KIT
Method in brief: as §1

CRIK(h) = molecular target: T4, CRIK(h) (Homo sapiens, UniProt O14578)
T4 construct: gene CIT
Method in brief: as §1

STK32C(h) = STK32C(h) (Homo sapiens, UniProt Q86UX6)
Method in brief: as §1

FAK(h) = molecular target: T5, FAK(h) (Homo sapiens, UniProt Q05397)
T5 construct: gene PTK2
Method in brief: as §1

TAK1(h) = molecular target: T6, TAK1(h) (Homo sapiens, UniProt O43318)
T6 construct: gene MAP3K7
Method in brief: as §1

Rsk3(h) = molecular target: T7, Rsk3(h) (Homo sapiens, UniProt Q15349)
T7 construct: gene RPS6KA2
T7 sequence (Q15349 whole entry): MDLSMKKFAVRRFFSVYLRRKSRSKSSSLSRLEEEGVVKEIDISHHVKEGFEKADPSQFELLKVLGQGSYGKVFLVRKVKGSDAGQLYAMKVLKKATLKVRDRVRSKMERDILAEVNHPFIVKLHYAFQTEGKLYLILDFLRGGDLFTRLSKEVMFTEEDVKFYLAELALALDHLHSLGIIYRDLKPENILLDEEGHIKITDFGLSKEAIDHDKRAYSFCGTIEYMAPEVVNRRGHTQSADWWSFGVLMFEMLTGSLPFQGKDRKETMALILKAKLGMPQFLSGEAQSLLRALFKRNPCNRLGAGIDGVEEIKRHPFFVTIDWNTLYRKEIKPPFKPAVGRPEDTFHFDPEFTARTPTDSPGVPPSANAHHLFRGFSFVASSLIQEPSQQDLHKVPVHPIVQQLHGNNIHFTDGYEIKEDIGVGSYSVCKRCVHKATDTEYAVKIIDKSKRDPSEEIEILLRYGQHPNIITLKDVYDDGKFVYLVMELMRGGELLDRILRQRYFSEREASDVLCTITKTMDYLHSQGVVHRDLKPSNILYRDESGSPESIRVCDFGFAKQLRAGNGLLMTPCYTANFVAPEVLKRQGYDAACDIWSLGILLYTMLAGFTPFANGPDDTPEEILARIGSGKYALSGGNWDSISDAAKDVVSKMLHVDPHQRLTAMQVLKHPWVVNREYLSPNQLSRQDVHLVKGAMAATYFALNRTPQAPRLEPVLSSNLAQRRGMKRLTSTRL
Method in brief: as §1

MEK2(h) = molecular target: T8, MEK2(h) (Homo sapiens, UniProt P36507)
T8 construct: gene MAP2K2
Method in brief: as §1

HIPK4(h) = HIPK4(h) (Homo sapiens, UniProt Q8NE63)
Sequence of HIPK4(h) (Q8NE63 whole entry): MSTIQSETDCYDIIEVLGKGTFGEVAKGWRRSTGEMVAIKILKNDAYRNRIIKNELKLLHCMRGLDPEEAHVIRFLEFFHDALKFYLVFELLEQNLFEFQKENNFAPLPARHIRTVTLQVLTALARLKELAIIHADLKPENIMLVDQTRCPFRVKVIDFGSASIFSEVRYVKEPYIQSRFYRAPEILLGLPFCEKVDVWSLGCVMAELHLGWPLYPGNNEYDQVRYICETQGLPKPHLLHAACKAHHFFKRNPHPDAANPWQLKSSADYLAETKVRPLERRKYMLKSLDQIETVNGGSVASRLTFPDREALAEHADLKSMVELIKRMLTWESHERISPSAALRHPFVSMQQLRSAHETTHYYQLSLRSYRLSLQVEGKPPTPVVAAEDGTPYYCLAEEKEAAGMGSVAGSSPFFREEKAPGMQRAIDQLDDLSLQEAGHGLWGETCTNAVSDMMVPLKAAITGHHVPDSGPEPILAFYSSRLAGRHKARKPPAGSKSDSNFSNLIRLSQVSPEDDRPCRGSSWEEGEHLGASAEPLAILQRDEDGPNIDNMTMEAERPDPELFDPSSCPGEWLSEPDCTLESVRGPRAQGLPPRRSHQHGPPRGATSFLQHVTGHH
Method in brief: as §1

MST3(h) = molecular target: T9, MST3(h) (Homo sapiens, UniProt Q9Y6E0)
T9 construct: gene STK24
T9 sequence (Q9Y6E0 whole entry): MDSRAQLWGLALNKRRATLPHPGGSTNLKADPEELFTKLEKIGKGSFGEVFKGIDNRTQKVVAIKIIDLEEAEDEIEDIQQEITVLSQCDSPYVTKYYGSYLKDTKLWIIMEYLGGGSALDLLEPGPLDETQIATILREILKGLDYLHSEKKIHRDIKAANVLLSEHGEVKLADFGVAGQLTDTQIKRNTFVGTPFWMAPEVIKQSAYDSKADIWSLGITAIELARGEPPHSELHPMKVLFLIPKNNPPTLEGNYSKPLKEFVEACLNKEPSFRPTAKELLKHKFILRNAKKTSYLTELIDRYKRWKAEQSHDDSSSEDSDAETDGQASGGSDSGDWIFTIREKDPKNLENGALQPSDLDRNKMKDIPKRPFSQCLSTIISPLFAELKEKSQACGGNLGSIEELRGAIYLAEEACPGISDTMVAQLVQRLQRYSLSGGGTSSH
Method in brief: as §1

Blk(h) = Blk(h) (Homo sapiens, UniProt P51451)
Sequence of Blk(h) (P51451 whole entry): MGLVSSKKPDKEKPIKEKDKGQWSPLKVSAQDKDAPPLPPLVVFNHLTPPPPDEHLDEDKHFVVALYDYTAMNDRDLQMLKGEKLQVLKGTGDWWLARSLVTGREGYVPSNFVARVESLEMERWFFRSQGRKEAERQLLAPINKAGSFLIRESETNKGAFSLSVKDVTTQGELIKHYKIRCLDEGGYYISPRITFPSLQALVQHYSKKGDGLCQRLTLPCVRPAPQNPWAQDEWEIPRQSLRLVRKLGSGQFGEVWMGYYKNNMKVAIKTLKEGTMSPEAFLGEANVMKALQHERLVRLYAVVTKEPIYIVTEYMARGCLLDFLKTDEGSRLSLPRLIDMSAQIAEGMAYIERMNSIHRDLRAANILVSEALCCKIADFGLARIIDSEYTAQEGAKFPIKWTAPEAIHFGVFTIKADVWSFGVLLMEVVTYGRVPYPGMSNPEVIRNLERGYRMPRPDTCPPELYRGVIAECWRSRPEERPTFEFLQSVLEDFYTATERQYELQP
Method in brief: as §1

PRKG2(h) = PRKG2(h) (Homo sapiens, UniProt Q13237)
Method in brief: as §1

ULK1(h) = ULK1(h) (Homo sapiens, UniProt O75385)
Sequence of ULK1(h) (O75385 whole entry): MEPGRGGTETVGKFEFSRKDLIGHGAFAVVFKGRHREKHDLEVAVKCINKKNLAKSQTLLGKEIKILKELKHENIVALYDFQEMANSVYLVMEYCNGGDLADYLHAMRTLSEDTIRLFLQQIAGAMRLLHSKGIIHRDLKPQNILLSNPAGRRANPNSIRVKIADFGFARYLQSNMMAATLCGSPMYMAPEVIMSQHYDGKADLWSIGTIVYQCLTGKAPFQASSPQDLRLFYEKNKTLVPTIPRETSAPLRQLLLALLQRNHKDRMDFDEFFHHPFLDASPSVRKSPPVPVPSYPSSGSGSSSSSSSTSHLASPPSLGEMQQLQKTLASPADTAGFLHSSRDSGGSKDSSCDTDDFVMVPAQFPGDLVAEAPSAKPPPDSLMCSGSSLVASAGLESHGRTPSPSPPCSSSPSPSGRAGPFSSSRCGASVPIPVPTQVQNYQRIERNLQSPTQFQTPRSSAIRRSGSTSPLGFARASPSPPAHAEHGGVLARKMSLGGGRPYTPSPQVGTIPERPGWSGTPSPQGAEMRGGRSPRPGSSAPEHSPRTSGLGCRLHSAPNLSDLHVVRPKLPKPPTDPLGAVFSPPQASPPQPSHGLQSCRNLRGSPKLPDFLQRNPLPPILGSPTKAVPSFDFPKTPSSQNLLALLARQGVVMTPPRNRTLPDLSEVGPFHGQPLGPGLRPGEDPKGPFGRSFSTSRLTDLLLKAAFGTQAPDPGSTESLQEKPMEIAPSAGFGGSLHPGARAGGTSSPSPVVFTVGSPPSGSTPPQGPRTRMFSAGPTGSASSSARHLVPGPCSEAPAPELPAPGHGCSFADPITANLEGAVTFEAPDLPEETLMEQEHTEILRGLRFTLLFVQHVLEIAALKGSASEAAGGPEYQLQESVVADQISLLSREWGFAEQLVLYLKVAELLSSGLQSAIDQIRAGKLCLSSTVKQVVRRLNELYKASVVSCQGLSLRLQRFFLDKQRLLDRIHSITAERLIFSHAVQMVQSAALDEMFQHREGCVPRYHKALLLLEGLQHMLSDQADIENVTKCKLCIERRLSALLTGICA
Method in brief: as §1

CDK4/cyclinD3(h) = CDK4/cyclinD3(h) (Homo sapiens, UniProt P11802)
Method in brief: as §1

CDK16/cyclinY(h) = CDK16/cyclinY(h) (Homo sapiens, UniProt Q00536)
Method in brief: as §1

MSK1(h) = molecular target: T10, MSK1(h) (Homo sapiens, UniProt O75582)
T10 construct: gene RPS6KA5
Method in brief: as §1

Rsk4(h) = molecular target: T11, Rsk4(h) (Homo sapiens, UniProt Q9UK32)
T11 construct: gene RPS6KA6
Method in brief: as §1

MST4(h) = molecular target: T12, MST4(h) (Homo sapiens, UniProt Q9P289)
T12 construct: gene STK26
Method in brief: as §1

Fms(h) = molecular target: T13, Fms(h) (Homo sapiens, UniProt P07333)
T13 construct: gene CSF1R
Method in brief: as §1

PAK5(h) = PAK5(h) (Homo sapiens, UniProt Q9P286)
Method in brief: as §1

Sequence of MARK3(h) (P27448 whole entry): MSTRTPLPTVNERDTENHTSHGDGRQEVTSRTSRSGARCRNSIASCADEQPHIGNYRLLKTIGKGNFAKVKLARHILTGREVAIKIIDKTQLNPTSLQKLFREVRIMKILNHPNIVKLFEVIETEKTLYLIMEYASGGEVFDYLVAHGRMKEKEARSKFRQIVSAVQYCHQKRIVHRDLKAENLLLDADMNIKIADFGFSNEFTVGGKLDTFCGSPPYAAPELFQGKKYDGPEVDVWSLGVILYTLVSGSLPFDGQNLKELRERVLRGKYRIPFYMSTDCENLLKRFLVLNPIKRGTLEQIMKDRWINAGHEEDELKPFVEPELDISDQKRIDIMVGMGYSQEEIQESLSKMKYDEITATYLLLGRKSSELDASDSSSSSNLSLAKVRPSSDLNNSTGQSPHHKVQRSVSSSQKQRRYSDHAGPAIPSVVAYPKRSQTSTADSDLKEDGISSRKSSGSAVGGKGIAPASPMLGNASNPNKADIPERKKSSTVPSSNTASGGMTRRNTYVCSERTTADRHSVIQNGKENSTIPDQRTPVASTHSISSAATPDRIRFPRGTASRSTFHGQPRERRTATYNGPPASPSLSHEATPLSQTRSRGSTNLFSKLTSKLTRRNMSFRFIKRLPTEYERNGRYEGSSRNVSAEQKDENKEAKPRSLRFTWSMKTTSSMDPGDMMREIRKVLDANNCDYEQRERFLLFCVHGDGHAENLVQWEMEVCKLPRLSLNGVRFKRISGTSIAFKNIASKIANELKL

For `C1=C(c2nc(-c3cnn(C4CCNCC4)c3)cn3cc(-c4ccccc4)nc23)CCOC1` [YL-939], the remaining activity at 10 µM (MARK3(h)) was 80%, the remaining activity at 10 µM (MSK2(h)) was 90% and the remaining activity at 10 µM (FGFR1(h)) was 115%. It also gave a remaining activity at 10 µM (MST1(h)) of 91%, a remaining activity at 10 µM (cKit(V560G)(h)) of 88% and a remaining activity at 10 µM (CRIK(h)) of 101%. It also gave a remaining activity at 10 µM (STK32C(h)) of 82%, a remaining activity at 10 µM (FAK(h)) of 112% and a remaining activity at 10 µM (TAK1(h)) of 77%. It also gave a remaining activity at 10 µM (Rsk3(h)) of 96%, a remaining activity at 10 µM (MEK2(h)) of 89% and a remaining activity at 10 µM (HIPK4(h)) of 106%. The remaining activity at 10 µM (MST3(h)) was 97%, the remaining activity at 10 µM (Blk(h)) was 100% and the remaining activity at 10 µM (PRKG2(h)) was 97%. For the same molecule, the remaining activity at 10 µM (ULK1(h)) was 65%, the remaining activity at 10 µM (CDK4/cyclinD3(h)) was 80% and the remaining activity at 10 µM (CDK16/cyclinY(h)) was 80%. It also gave a remaining activity at 10 µM (MSK1(h)) of 79%, a remaining activity at 10 µM (Rsk4(h)) of 73% and a remaining activity at 10 µM (MST4(h)) of 112%. The remaining activity at 10 µM (Fms(h)) was 122% and the remaining activity at 10 µM (PAK5(h)) was 95%.
